{"source": "patent US11078496B2", "about": "“System for F-box hormone receptor regulated protein expression in mammalian cells” (ICAHN SCHOOL OF MEDICINE AT MOUNT SINAI, priority 2016, dated 2021)", "system": "CCE A-CHK1 clone #2 cells", "assay": "Competition assay of A-CHK1 clone #2 cells against GFP-A CCE cells", "type": "cell-based, mouse", "settings": "50 μM IAA-treated A-CHK1 cells compared to the EtOH-treated controls", "method": "FIGS. 6A-6E show CHK1 depletion under normal growth conditions in mESCs. FIG. 6A show images of cells assayed for alkaline phosphatase activity. CCE mESCs were infected with pRAIDRS GFP-A or A-CHK1 and selected in the presence of EtOH (“Con”) or auxin (“IAA”). After colonies emerged, cells were assayed for alkaline phosphatase activity. Left, low magnification scans. Right, bright-field microscope images. Scale bars, 100 μm. […] FIG. 6B are graphs showing populations doubling, following selection, of the indicated clones cultured in the presence of 0.01% EtOH (solid lines) or 50 μM IAA (dashed lines). Cells were counted and replated every 3-4 days and population doublings were calculated as Log2 (cell output/cell input). Experiment was conducted once for these clones. […] Cells were collected every 2-3 days and assayed for GFP and mCherry fluorescence by flow cytometry. The percentage of A-CHK1 cells was calculated for each time point and the values for the auxin-treated cells were normalized to those of EtOH-treated cells. An average growth rate decrease of 8% per day was calculated for auxin-treated A-CHK1 cells compared to the EtOH-treated controls. […] In FIG. 6E, the indicated clones were treated with 0.01% EtOH or 50 μM auxin (“IAA”) for 3 days and analyzed for the expression of self-renewal and differentiation markers by QRT-PCR. […]", "data": [{"smiles": "O=C(O)Cc1c[nH]c2ccccc12", "note": "[auxin, indole-3-acetic acid]", "values": [{"measurement": "average growth rate decrease", "result": 8, "unit": "% per day"}]}]}
